Biological target: T1, PI3Kδ (Homo sapiens, UniProt O00329)
T1 construct: gene PIK3CD; PI3Kδ (p120δ/p85α); with p85α
Experiment: ADP-Glo kinase assay (PIP2:PS substrate, […] ATP)
Format: biochemical

T1 sequence (O00329 whole entry): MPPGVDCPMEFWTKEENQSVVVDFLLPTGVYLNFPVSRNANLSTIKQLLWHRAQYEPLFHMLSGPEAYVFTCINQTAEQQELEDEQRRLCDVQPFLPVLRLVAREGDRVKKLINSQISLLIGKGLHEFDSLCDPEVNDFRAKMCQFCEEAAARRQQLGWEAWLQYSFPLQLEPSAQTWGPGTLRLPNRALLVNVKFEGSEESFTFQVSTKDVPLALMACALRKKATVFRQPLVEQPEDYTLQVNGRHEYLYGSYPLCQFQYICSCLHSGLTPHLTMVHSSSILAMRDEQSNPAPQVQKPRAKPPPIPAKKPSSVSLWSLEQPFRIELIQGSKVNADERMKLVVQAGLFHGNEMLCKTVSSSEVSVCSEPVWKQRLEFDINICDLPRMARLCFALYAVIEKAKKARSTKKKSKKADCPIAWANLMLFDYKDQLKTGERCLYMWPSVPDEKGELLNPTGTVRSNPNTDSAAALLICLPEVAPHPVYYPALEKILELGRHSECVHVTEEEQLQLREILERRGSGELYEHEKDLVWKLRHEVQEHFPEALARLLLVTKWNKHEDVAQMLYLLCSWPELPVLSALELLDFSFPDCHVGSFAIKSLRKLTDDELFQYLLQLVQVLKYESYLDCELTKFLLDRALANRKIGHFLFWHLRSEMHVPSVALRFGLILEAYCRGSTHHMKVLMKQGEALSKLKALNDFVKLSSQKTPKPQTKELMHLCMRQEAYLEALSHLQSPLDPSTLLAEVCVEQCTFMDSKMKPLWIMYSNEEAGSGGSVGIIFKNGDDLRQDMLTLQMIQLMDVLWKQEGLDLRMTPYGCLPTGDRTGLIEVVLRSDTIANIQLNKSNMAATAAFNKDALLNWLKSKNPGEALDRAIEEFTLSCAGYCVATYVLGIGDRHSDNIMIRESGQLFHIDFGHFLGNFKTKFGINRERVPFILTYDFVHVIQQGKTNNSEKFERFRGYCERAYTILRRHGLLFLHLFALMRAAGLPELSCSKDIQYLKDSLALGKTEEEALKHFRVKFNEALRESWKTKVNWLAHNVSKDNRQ
T1 sequence (P27986 2-724 partner): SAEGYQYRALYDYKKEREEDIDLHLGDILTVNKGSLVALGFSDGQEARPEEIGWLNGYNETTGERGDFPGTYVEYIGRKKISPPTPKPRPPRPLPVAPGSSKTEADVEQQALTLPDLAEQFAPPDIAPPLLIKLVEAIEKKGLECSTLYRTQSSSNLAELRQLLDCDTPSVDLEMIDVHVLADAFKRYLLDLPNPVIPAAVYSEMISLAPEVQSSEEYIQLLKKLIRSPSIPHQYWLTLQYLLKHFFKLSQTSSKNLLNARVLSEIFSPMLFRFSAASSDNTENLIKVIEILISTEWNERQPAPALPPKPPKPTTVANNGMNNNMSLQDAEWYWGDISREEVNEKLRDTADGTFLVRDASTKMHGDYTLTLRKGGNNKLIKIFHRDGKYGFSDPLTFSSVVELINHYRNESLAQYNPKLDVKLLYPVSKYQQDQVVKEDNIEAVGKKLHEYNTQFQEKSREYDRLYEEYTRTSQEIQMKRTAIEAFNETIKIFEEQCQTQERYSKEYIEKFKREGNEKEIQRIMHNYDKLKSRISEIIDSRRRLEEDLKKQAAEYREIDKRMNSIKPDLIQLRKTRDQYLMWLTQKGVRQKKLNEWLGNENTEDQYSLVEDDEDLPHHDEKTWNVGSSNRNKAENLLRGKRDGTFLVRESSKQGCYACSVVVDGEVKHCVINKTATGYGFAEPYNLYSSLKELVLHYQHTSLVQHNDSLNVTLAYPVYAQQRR

- IC50: 288 µM
SMILES: COc1cc(C2Oc3cc([C@H]4Oc5cc(O)cc(O)c5C(=O)[C@@H]4O)ccc3OC2CO)ccc1O (stereo partly shown) [Silibinin]

From publication PMC11508633, “In Silico Discovery of a Novel PI3Kδ Inhibitor Incorporating 3,5,7-Trihydroxychroman-4-one Targeting Diffuse Large B-Cell Lymphoma” (International Journal of Molecular Sciences, 2024)
